Measured values from US8883963B2 (Cadila Healthcare Limited, priority 2007, dated 2014).
Non-standard residues stand in square brackets, D forms with d. Residues, ends and D or L forms follow the SMILES beside them. ξ: configuration not given here. *: point of attachment. X8 = CCc1cc(OC)ccc1-c1ccc(CC(NC(=S)[C@H](CC(=O)O)N*)C(=S)NC(CCCc2ccccc2)C(N)=O)cc1; X4 = CCc1cc(OC)ccc1-c1ccc(CC(CNC(CCCc2ccccc2F)C(N)=O)N*)cc1; X7 = CCc1cc(OC)ccc1-c1ccc(CC(CNC(CCCc2ccccc2)C(N)=O)N*)cc1; ξαMePhe(2-F) = CC(N)(Cc1ccccc1F)C(=O)O; aThr = C[C@H](O)[C@H](N)C(=O)O; Aib = CC(C)(N)C(=O)O

Key:
Assay type in all cases: cell-based
[1] = test system: RIN5F (Rat Insulinoma) cells; assay: In vitro glucose-dependent insulin secretion (RIN5F cell assay screening protocol); details: 16.7 mM glucose load
Method: RIN5F (Rat Insulinoma) cells were cultured in RPMI 1640 medium supplemented with sodium pyruvate (1 mM) HEPES and Glucose (4.5 g/L) in a humidified incubator (5% CO2), at 37° C. After trypsinization, RIN5F cells were seeded at a concentration of 0.2×10^6 cells per well, in 12 well plates.
The buffer was replaced after 40 min. and the cells were incubated (37° C.) with the test peptidomimetics, at different concentration, for 30 min., both in the presence (16.7 mM) and absence (0 mM) of glucose load. The supernatant was collected and the insulin amount was measured by ultra sensitive Rat insulin ELISA kit (Crystal Chem, IL). The protein was estimated in the supernatant using Bicinchoninic Acid kit, according to the manufacturer's protocol (Sigma Aldrich, MO). The total insulin content obtained in Pico-gram (pg) was divided with the total protein (μg) in order to normalize for differences in cell density between wells.

Human GLP-1 receptor = molecular target: T1, Human GLP-1 receptor (Homo sapiens, UniProt P43220); assay: In vitro Human GLP-1 R agonist activity (cyclic AMP determination) in CHO/human GLP1R cells
T1 construct: The full-length cDNA was cloned in pcDNA3.1(+); expressed in transfected cells
Method: The novel peptidomimetics were screened for Human GLP-1 receptor (HGLP-1 R) agonist activity (in vitro), using the cAMP cell-based assay, in stably transfected CHO/human GLP1R cells. […] CHO cells were grown in Ham's F12 medium containing L-Glutamine (2 mM), HEPES (25 mM), NaHCO3 (1.1 g/L) and supplemented with NewBorn Calf Serum (NBCS; 10%), Penicillin (50 U/ml (v/v)) and Streptomycin (50 ug/ml (v/v)). Cells were split every 3 days 1:8.
The cDNA encoding the human GLP-1 receptor was isolated by RT-PCR according to standard protocol. The full-length cDNA was cloned in pcDNA3.1(+). […] Clones expressing the receptor were generated by G418 (800 μg/ml active, Sigma) selection. The stable clones were thereafter maintained at 500 ug/ml (G418). The selected clone was used between passages 9-25 for cAMP assays.
The trypsin was inactivated using Ham's F12 medium containing 10% NBCS and the cells were suspended in 2 ml of complete medium. […] The medium was aspirated off from the 12 well plate and the cells were washed once using Ham's F12 (plain). […] The cells were incubated with the test compounds for 30 min in humidified atmosphere and 37° C. After the incubation, the medium was removed and cells were washed once with plain Ham's F12. Subsequently, the cells were lysed by adding 500 ul of ice cold 0.1 N HCl to each well and shaking for 30 minutes at 200 rpm. The cells were then scrapped, the lysate was collected in micro centrifuge tubes and centrifuged at 12000 rpm for 10 min to remove the debris. 300 ul of supernatant from each micro-centrifuge tube was then removed into a glass tube and dried under N2 for 30 min, for cAMP estimation. The total cAMP was estimated from the sample according to the manufacturer's protocol using Cyclic AMP immunoassay kit (R&D systems, Minneapolis. MN). The remaining supernatant is used to determine the protein concentration using micro BCA (Sigma). Data is calculated as percent of control (Vehicle: water) and expressed as Mean±SD.

human glucagon receptor = molecular target: T2, human glucagon receptor (Homo sapiens, UniProt P47871); assay: In vitro human glucagon antagonist activity (inhibition of cAMP production) in CHO/human glucagon R cells; details: with saturated concentration of glucagon peptide
T2 construct: The full-length cDNA was cloned in pcDNA3.1 (Invitrogen); expressed in transfected cells
Method: The CHO-K1 cells (CRL 9618) were obtained from American Type Culture Collection (Rockville, Md.). CHO cells were grown in Ham's F12 medium containing L-Glutamine (2 mM), HEPES (25 mM), NaHCO3 (1.1 g/L) and supplemented with newborn Calf Serum (NBCS; 10%), Penicillin (50 U/ml (v/v)) and Streptomycin (50 ug/ml (v/v)). Cells were split every 3 days 1:8.
The full-length cDNA was cloned in pcDNA3.1 (Invitrogen). […] Clones expressing the receptor were generated by G418 (800 μg/ml active, Sigma) selection. The stable clones were thereafter maintained at 500 ug/ml (G418). The selected clone was used between passages 9-25 for cAMP assays.
The cells were trypsinized using 2 ml of TPVG (0.25% trypsin, 0.53 mM EDTA, 1.38-mM glucose). The trypsin was inactivated using Ham's F12 medium containing 10% NBCS and the cells were suspended in 2 ml of complete medium. […] The medium was aspirated off from the 12 well plate and the cells were washed once using Ham's F12 (plain). The cells were incubated at 37° C. with 500 ul of Ham's F12+1% BSA+0.125 mM RO-20 for 30 min. […] After the incubation, the medium was removed and cells were washed once with plain Ham's F12. Subsequently, the cells were lysed by adding 500 ul of ice cold 0.1 N HCl to each well and shaking for 30 minutes at 200 rpm. The cells were then scrapped, the lysate was collected in micro centrifuge tubes and centrifuged at 12000 rpm for 10 min to remove the debris. 300 ul of supernatant from each micro-centrifuge tube was then removed into a glass tube and dried under N2 for 30 min, for cAMP estimation. The total cAMP was estimated from the sample according to the manufacturer's protocol using Cyclic AMP immunoassay kit (R&D systems, Minneapolis. MN). The remaining supernatant is used to determine the protein concentration using micro BCA (Sigma). Data is calculated as percent of control (Vehicle: water) and expressed as Mean+SD.

T2 sequence (P47871 26-477): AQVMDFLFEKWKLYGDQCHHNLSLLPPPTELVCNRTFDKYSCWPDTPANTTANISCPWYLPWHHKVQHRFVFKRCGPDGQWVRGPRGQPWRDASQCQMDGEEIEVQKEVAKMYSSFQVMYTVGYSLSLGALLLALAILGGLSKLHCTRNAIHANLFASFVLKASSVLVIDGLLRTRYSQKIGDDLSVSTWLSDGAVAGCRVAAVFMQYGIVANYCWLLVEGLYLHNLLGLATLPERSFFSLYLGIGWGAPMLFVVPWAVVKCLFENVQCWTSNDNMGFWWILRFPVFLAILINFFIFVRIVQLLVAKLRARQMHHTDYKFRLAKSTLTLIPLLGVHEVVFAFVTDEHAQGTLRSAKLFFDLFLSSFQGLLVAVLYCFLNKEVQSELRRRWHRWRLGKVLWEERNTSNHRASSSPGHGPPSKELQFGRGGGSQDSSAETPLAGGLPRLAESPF
T1 sequence (P43220 24-463): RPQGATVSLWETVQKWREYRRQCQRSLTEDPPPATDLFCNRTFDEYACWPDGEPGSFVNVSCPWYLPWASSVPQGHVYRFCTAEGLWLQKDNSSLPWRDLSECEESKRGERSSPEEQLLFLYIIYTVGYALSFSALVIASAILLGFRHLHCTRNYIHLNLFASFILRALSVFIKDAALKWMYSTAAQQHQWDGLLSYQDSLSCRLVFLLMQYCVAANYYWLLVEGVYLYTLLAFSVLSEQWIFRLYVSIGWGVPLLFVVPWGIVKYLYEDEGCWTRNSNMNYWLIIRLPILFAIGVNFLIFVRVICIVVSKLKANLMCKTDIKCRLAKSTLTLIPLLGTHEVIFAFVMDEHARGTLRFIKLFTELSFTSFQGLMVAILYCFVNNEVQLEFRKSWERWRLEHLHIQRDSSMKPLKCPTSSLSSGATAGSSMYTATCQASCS

Compound	Insulin secretion ([1]; 0.1 nM test compd.) [pg/µg/h]	Insulin secretion ([1]; 1 nM test compd.) [pg/µg/h]	Insulin secretion ([1]; 10 nM test compd.) [pg/µg/h]	Human Glucagon receptor antagonistic activity shown as inhibition of cAMP production of Glucagon peptide (human glucagon receptor; 1 nM test compound) [pmol/ml/μg prt]	Human Glucagon receptor antagonistic activity shown as inhibition of cAMP production of Glucagon peptide (human glucagon receptor; 10 nM test compound) [pmol/ml/μg prt]	Human Glucagon receptor antagonistic activity shown as inhibition of cAMP production of Glucagon peptide (human glucagon receptor; 100 nM test compound) [pmol/ml/μg prt]	Human Glucagon receptor antagonistic activity shown as inhibition of cAMP production of Glucagon peptide (human glucagon receptor; 1 μM test compound) [pmol/ml/μg prt]	Human Glucagon receptor antagonistic activity shown as inhibition of cAMP production of Glucagon peptide (human glucagon receptor; 10 μM test compound) [pmol/ml/μg prt]	further results
CCc1cc(OC)ccc1-c1ccc(CC(NC(=O)[C@H](CC(=O)O)NC(=O)[C@H](CO)NC(=O)[C@@H](NC(=O)C(C)(Cc2ccccc2F)NC(=O)[C@@H](NC(=O)CNC(=O)[C@H](CCC(N)=O)NC(=O)C(C)(C)NC(=O)[C@@H](N)Cc2c[nH]cn2)[C@@H](C)O)[C@@H](C)O)C(=O)NC(CCCc2cccc(Cl)c2)C(N)=O)cc1 (single isomer, unassigned) [compound 39]	11.1 ± 0.12	13.1 ± 0.13	19.0 ± 0.16	–	–	–	–	–	–
CCc1cc(OC)ccc1-c1ccc(CC(NC(=O)[C@H](CC(=O)O)NC(=O)[C@H](CO)NC(=O)[C@@H](NC(=O)[C@H](Cc2ccccc2)NC(=O)[C@@H](NC(=O)CNC(=O)[C@H](CCC(N)=O)NC(=O)[C@H](CO)NC(=O)[C@@H](N)Cc2c[nH]cn2)[C@@H](C)O)[C@@H](C)O)C(=O)NC(CCCc2ccc(F)cc2C(F)(F)F)C(N)=O)cc1 (single isomer, unassigned) [compound 48]	12.9 ± 0.14	15.8 ± 0.13	29.9 ± 0.15	–	–	–	–	–	–
CCc1cc(OC)ccc1-c1ccc(CC(NC(=O)[C@H](CC(=O)O)NC(=O)[C@H](CO)NC(=O)[C@@H](NC(=O)C(C)(Cc2ccccc2F)NC(=O)[C@@H](NC(=O)CNC(=O)[C@H](CCC(N)=O)NC(=O)C(C)(C)NC(=O)[C@H](Cc2c[nH]cn2)NC(C)=O)[C@H](C)O)[C@H](C)O)C(=O)NC(CCCc2ccccc2)C(N)=O)cc1 (single isomer, unassigned) [compound 101]	12.4 ± 0.22	15.2 ± 0.32	29.6 ± 0.50	–	–	–	–	–	–
CCc1cc(OC)ccc1-c1ccc(CC(NC(=O)[C@H](CC(=O)O)NC(=O)[C@H](CO)NC(=O)[C@@H](NC(=O)C(C)(Cc2ccccc2F)NC(=O)[C@@H](NC(=O)CNC(=O)[C@H](CCC(N)=O)NC(=O)C(C)(C)NC(=O)[C@H](Cc2c[nH]cn2)NC(C)=O)[C@H](C)O)[C@H](C)O)C(=O)NC(CCCc2ccccc2F)C(N)=O)cc1 (single isomer, unassigned) [compound 103]	12.1 ± 0.51	14.1 ± 0.19	28.1 ± 0.29	–	–	–	–	–	–
CCc1cc(OC)ccc1-c1ccc(CC(CNC(CCCc2ccccc2F)C(N)=O)NC[C@H](CC(=O)O)NC(=O)[C@H](CO)NC(=O)[C@@H](NC(=O)C(C)(Cc2ccccc2F)NC(=O)[C@@H](NC(=O)CNC(=O)[C@H](CCC(N)=O)NC(=O)C(C)(C)NC(=O)[C@H](Cc2c[nH]cn2)NC(=O)OC)[C@@H](C)O)[C@@H](C)O)cc1 (single isomer, unassigned) [compound 196]	–	–	–	–	–	–	–	–	Human GLP-1 R activity (cAMP release), % activity with respect to control (Human GLP-1 receptor; 1 nM test compound): 39 ± 0.10%; Human GLP-1 R activity (cAMP release), % activity with respect to control (Human GLP-1 receptor; 10 nM test compound): 81 ± 0.08%; Human GLP-1 R activity (cAMP release), % activity with respect to control (Human GLP-1 receptor; 100 nM test compound): 89 ± 0.09%; Human GLP-1 R activity (cAMP release), % activity with respect to control (Human GLP-1 receptor; 1 μM test compound): 96 ± 0.11%; Human GLP-1 R activity (cAMP release), % activity with respect to control (Human GLP-1 receptor; 10 μM test compound): 99 ± 0.16%
CCc1cc(OC)ccc1-c1ccc(CC(NC(=O)[C@H](CC(=O)O)NC(=O)[C@H](CO)NC(=O)[C@@H](NC(=O)C(C)(Cc2ccccc2F)NC(=O)[C@@H](NC(=O)CNC(=O)[C@H](CC(C(F)(F)F)C(F)(F)F)NC(=O)C(C)(C)NC(=O)[C@@H](N)Cc2c[nH]cn2)[C@H](C)O)[C@H](C)O)C(=O)NC(CCCc2ccccc2)C(N)=O)cc1 (single isomer, unassigned) [compound 228]	–	–	–	–	–	–	–	–	Human GLP-1 R activity (cAMP release), % activity with respect to control (Human GLP-1 receptor; 1 nM test compound): 99 ± 0.11%; Human GLP-1 R activity (cAMP release), % activity with respect to control (Human GLP-1 receptor; 10 nM test compound): 99 ± 0.13%; Human GLP-1 R activity (cAMP release), % activity with respect to control (Human GLP-1 receptor; 100 nM test compound): 99 ± 0.16%; Human GLP-1 R activity (cAMP release), % activity with respect to control (Human GLP-1 receptor; 1 μM test compound): 99 ± 0.06%; Human GLP-1 R activity (cAMP release), % activity with respect to control (Human GLP-1 receptor; 10 μM test compound): 99 ± 0.10%
CCc1cc(OC)ccc1-c1ccc(CC(NC(=S)[C@H](CC(=O)O)NC(=O)[C@H](CO)NC(=O)[C@@H](NC(=O)C(C)(Cc2ccccc2F)NC(=O)[C@@H](NC(=O)CNC(=O)[C@H](CCC(N)=O)NC(=O)C(C)(C)NC(=O)[C@@H](N)Cc2c[nH]cn2)[C@H](C)O)[C@H](C)O)C(=S)NC(CCCc2ccccc2)C(N)=O)cc1 (stereo partly shown) [compound 177] (H-H[Aib]QG[aThr][ξαMePhe(2-F)][aThr]S-X8)	–	–	–	0	0	0	0	0	–
CCc1cc(OC)ccc1-c1ccc(CC(CNC(CCCc2ccccc2)C(N)=O)NC(=O)[C@H](CC(=O)O)NC(=O)[C@H](CO)NC(=O)[C@@H](NC(=O)C(C)(Cc2ccccc2F)NC(=O)[C@@H](NC(=O)CNC(=O)[C@H](CCC(N)=O)NC(=O)C(C)(C)NC(=O)[C@@H](N)Cc2c[nH]cn2)[C@H](C)O)[C@H](C)O)cc1 (stereo partly shown) [compound 189] (H-H[Aib]QG[aThr][ξαMePhe(2-F)][aThr]SD-X7)	–	–	–	3 ± 0.12	1 ± 0.12	0	0	0	–
CCc1cc(OC)ccc1-c1ccc(CC(CNC(CCCc2ccccc2F)C(N)=O)NC(=O)[C@H](CC(=O)O)NC(=O)[C@H](CO)NC(=O)[C@@H](NC(=O)C(C)(Cc2ccccc2F)NC(=O)[C@@H](NC(=O)CNC(=O)[C@H](CCC(N)=O)NC(=O)C(C)(C)NC(=O)[C@@H](N)Cc2c[nH]cn2)[C@H](C)O)[C@H](C)O)cc1 (stereo partly shown) [compound 191] (H-H[Aib]QG[aThr][ξαMePhe(2-F)][aThr]SD-X4)	–	–	–	4 ± 0.05	2 ± 0.13	2 ± 0.12	0	0	–
